The test system of experiment [1] is Botrytis cinerea (isolate BcI16). Put plainly: Gray mold on attached leaves of tomato plants treated by spray or drench. It counts as in vivo. As to conditions: for B. cinerea infection (disease severity): 0.5 mM, spraying. The protocol: Tomato plants (tomato cultivar-Brigate) were grown from seeds in a nursery and transplanted into 1 liter pots at 40 to 50 days following seeding in an unheated greenhouse. Plants were fertilized proportionally with drippers 2-3 times per day with 5:3:8 NPK fertilizer (irrigation water was planned to have total N, P and K concentrations of 120, 30 and 150 mg/L, respectively; EC 2.2 dS/m), allowing for 25-50% drainage. Plants were maintained at 20-30° C. with natural light, and relative humidity of 50-90% in a pest- and disease-free greenhouse during the growth period and then transferred to an area where disease was allowed to develop following pathogen infection on intact leaves as described below.
Botrytis cinerea [Pers.:Fr. [Teleomorph: Botryotinia fuckeliana (de Bary) Whetzel] (isolate BcI16; [Swartzberg D. et al., Eur. J. Plant Pathol., 2008, 120:289-297])] was cultured on potato dextrose agar (PDA, Difco, Detroit, MI) in 90 mm diam. petri plates containing 15 ml PDA each and incubated at 20° C. The inoculum was maintained on PDA and transferred every two weeks. Gray mold conidia were harvested from 10 to 14 day-old cultures by agitating 1 cm^2 of agar bearing mycelium and conidia in a glass tube with tap water. The suspension was then filtered through cheesecloth. The concentration of conidia was determined using a haemocytometer and a light microscope, and adjusted to 5×10^5 conidia/ml. Since B. cinerea conidia need carbon and phosphate for germination and penetration, 0.1% glucose was added to the final conidial suspension together with 0.1% KH2PO4.
Plant attached tomato leaves were examined. Whole plants were kept in a humidity chamber at 22±1° C., 97±3% RH, and 1020 lux light intensity. Plants were infected by placing 10 μL drops of a 5×10^5 conidia/ml suspension, 5 drops/leaf (one drop on each leaflet), on two mature leaves.
Disease severity was evaluated on each plant using a pictorial key; 0=no infection (infection site is symptomless) and 100=all infection site fully covered by gray mold symptoms. The analyses were performed in the mentioned plants.
Phenylalanine treatment consisted of either spray or drench at concentrations of 0.5-4.1 mM administrated 3 and 0 days before infection with B. cinerea. Control plants were treated by water and kept under the same conditions as mentioned above.
Treatments in experiments were replicated 5 times. Replicates of each treatment were arranged randomly. Disease severity data in percentages were arcsin-transformed before further analysis. Disease severity data were analyzed using ANOVA and Fisher's protected LSD test and disease levels were statistically separated (P≤0.05) following a one-way analysis of variance.
Specifically, tomato plants were sprayed with increasing concentrations of Phe solutions (0.5-30 mM aquatic solution of Phe, no detergent) and percent disease severity was determined 11 days following treatment.

The subject of experiment [2] is B. cinerea. The experiment is described as follows: Whole petunia plants sprayed or pots drenched, leaves inoculated with B. cinerea. It counts as in vivo, Botrytis cinerea. To be noted: for B. cinerea infection (decay area): 0.5 mM, spraying. Here is the method:
Inoculation with B. cinerea was performed 3 days after Phe treatment. In this case only one Phe treatment was performed however multiple treatments can be used e.g., first-three days prior to inoculation and a second one on the day of inoculation (data not shown but results are similar). 18 leaves were inoculated with B. cinerea, as described above. The plants were covered with a nylon bag and kept in the light and 22° C. (as above).
Commercial petunia plants (‘Dream Heaven’) were treated as described above in Example 3, either by spraying the plants (FIG. 3A) or drenching the pots (FIG. 3B), this time with increasing concentrations of Phe (6-50 mM).

For experiment [3], the system named is Sclerotinia sclerotiorum. Put plainly: Tomato leaves, white rot after spray or drench treatment. It counts as in vivo. As to conditions: spray and drench, 4 mM. Here is the method:
Phe concentration used was 4 mM. Results are presented by disease severity scoring of AUDPC (area under disease progress curve during 15 days after infection) where the severity is marked by units of rot area (mm^2) multiplied by the time of incubation.

Experiment [4] has as its system Plenodomus tracheiphilus syn Phoma tracheiphila. Put plainly: Lemon plants in pots, mal secco disease after leaf wounding and conidia infection. As to conditions: 4 mM, drenching 10 ml per pot or spraying. Type of experiment: in vivo. Here is the method:
Phe concentration used was 4 mM. Results are presented by disease incidence of infection sites as percent resulting from drench treatment (lower FIG. 7A) and spray treatment (upper FIG. 7A)
Lemon plants in pots were treated with 4 mM Phe water solutions either by drenching 10 ml of solution per pot or spraying, as described for tomato. Infection was carried out by conidia suspension of Plenodomus tracheiphilus after leaf wounding by a needle. Disease incidence was evaluated according to the amount of successful infection sites on the infected leaves and presented as percent of infected leaves.

Experiment [5] has as its system Sclerotinia sclerotiorum. The experiment is described as follows: Sweet basil plants in pots, white rot after mycelium disc inoculation. Type of experiment: in vivo. To be noted: 4.1 mM, spray or drench. The protocol:
Phe concentration used was 4.1 mM. Results are presented by disease severity scoring of AUDPC (area under disease progress curve during 6 days after infection) where the severity is marked by units of rot diameter (mm) multiplied by the time of incubation.
Sweet basil plants in pots were treated with 4.1 mM Phe as described for tomato, and inoculated with a S. sclerotiorum mycelium disc from 4 days potato dextrose agar culture (White rot), related to botrytis, both being from the Ascomycota division.

In experiment [6] the test system is B. cinerea. Put plainly: Cut Ruscus branches drenched or dipped in Phe, leaves wounded and inoculated with B. cinerea. Type of experiment: in vivo, Botrytis cinerea. As to conditions: whole branches dipped for an hour in 6 mM. Here is the method: Ruscus branches serve as an ornamental decorative. These plants are very susceptible to Botrytis. Cut branches were treated with Phe either by drenching the tip of the cut branch in the Phe solution (FIG. 4B), or dipping the whole cut branch in Phe solution for an hour before dipping it in water and inoculating with botrytis. In both treatments the concentration used was 6 mM phenylalanine, and for the drenching treatment an additional concentration of 20 mM was added (FIG. 4A). For the dipping experiment 50 ppm T.O.G-6 was added to the Phe solution to prevent bacterial growth during the days of the experiment. Control branches were drenched in water and dipped in water with 50 ppm T.O.G-6. Ruscus leaves were wounded and inoculated with B. cinerea as described in the above Examples. Decay area (mm*2) results are presented as averages of 10 replications with each being a leaf from one of 10 branches±SE.

Experiment [7] has as its system Botrytis cinerea strain BO-05. Put plainly: Detached petunia leaves dipped in Phe, wound inoculated with B. cinerea conidia. To be noted: 15 mM Phe dip, 7 days post inoculation, vs non-treated controls. It counts as in vivo. Here is the method: Petunia (Petunia×hybrida) V26 variety, and a commercial white flowered cultivar (Dream White) cultivars were used. Petunia plants were grown as described in Oliva et al., (2015). Arabidopsis plants were grown as described in Tzin et al., (2012).
Conidia of Botrytis cinerea strain BO-05 were grown on PDA medium for 10 days. Conidia were gently collected from the plate in sterile water and were diluted to 10^6 conidia/ml. Fresh leaves of similar age and size of Petunia or Arabidopsis were detached from the plant, washed with water and placed in a humid chamber, under artificial light at 22° C. The upper side of the leaves was wounded (1-2 mm) and 5 μl drops of conidia suspension at a concentration of 10^6 conidia/ml were placed on the artificial wound. Decay diameter was measured following inoculation in specific days post inoculation (dpi) as detailed in the results.
Petunia leaves were dipped for 10 min in double distilled water with 0.02% Silwett L-77 surfactant supplemented either with 15 mM or 0 mM phenylalanine. Leaves were then placed in a humid box, and wound inoculated with B. cinerea was performed as described above.
In an independent experiment the decay diameter of detached leaves of wild type petunia (V26 cultivar) treated with 15 mM Phe or with […]. […]
Necrotic area was measured at 3, 4 and 7 days post inoculation (dpi). […]

Experiment [8] relates to Pythium aphanidermatum. Put plainly: Cucumber plantlets, damping off disease after drench. Type of experiment: in vivo. To be noted: 4 mM drench. The protocol: Phe concentration used was 4 mM. Results are presented by the percentage of dead plants incidence (FIG. 9A). FIG. 9B: control treatment=lower row and Phe treatment=upper row.
Cucumber plantlets cv. Bet Alpha and grown in peat based growing medium were treated either by drenching 4 mM phenylalanine solution, 10 ml per pot containing 4 plants each. and the percent plantlets that survived was determined in each treatment. […] FIG. 9B presents two pots of each treatment; Pots in the lower row were not treated and pots in upper row were treated with 4 mM Phe.

Experiment [9] relates to Alternaria alternata. Put plainly: Postharvest avocado fruit dip, inoculation with Alternaria alternata. Type of experiment: in vivo. To be noted: avocado 'Ettinger', dip 30 seconds at 1-4 mM, 6 days post inoculation, 23° C. The protocol:
FIG. 8 are images of avocado fruits of the cultivar ‘Ettinger’ dipped in water or 1 mM or 4 mM phenylalanine for 30 seconds and stored for one day at 5° C. Then the avocado fruit were inoculated by wounding at the fruit equatorial with […] of spore suspension of Alternaria alternata at the concentration of 10^5 conidia/ml at two sides of the fruit. The fruits were stored at 23° C. The decay area was monitored during 6 days post inoculation. Clearly, the fruit treated with Phe solutions, postharvest show
Avocado fruits of the cultivar ‘Ettinger’ were dipped in water or 1 mM or 4 mM phenylalanine for 30 seconds and stored for one day at 5° C. Then the avocado fruit were inoculated at the fruit equatorial with Alternaria alternata at the concentration of 10^5 conidia/ml at two sides of the fruit. The decay area was monitored during 6 days post inoculation, while incubation at 23° C.

As to `N[C@@H](Cc1ccc(O)cc1)C(=O)O` [Tyr, Tyrosine], in experiment [1], the “B. cinerea infection (disease severity)” value is on record as “reduced B. cinerea infection”. For the same compound, the “B. cinerea infection (decay area)” value in [2] (petunia) was “reduced B. cinerea infection”.

With `N[C@@H](Cc1ccccc1)C(=O)O` [Phe, Phenylalanine], in experiment [3], the “resistance of tomato leaves to white rot” value is given as “increase the resistance”. For the same compound, in experiment [4], the “resistance of the plant leaves to the fungus (disease incidence)” value was “increased the resistance”. The “effect of adding a surfactant on resistance to B. cinerea” value in [1] (0.5 mM Phe with 0.01% Tween 80 vs without) was “improved the effect of increased resistance”. Moreover, the “B. cinerea infection (disease severity)” value in experiment [1] was “reduced B. cinerea infection”. Moreover, the “disease severity (gray mold)” value in experiment [1] (drench to the root zone, 0.5 to 4.1 mM) is listed as “reduced significantly”; in experiment [1] (sprayed on the plants, 1.0 to 4.1 mM), “reduced significantly”. In addition, the duration of resistance result in experiment [1] (spray, 20 and 30 mM (results not shown)) is on record as “increased resistance for a longer period of time”. For the same compound, the “disease symptoms (white rot)” value in [5] is listed as “significant reduction in disease symptoms”. Besides, the “resistance to botrytis (decay area)” value in experiment [6] is recorded as “increased resistance of the plants to botrytis significantly”. Moreover, in [2] (petunia 'Dream Heaven', spray or drench, 6-50 mM), the “resistance of the plants to B. cinerea at higher concentrations” value was “increased resistance”. The “B. cinerea infection (decay area)” value in experiment [2] (petunia) is reported as “reduced B. cinerea infection”. Moreover, the decay area entry in experiment [2] (petunia, 35 and 50 mM, 7 days after spraying and 10 days after drenching) was “no increased decay area”. Besides, the “degree of resistance, 4.1 mM compared with 6 mM” value in [2] (whole petunia plants, 4.1 mM Phe vs 6 mM Phe) is on record as “a little lower”. The “tolerance to B. cinerea (decay area)” value in experiment [2] (whole petunia plants, spraying or drenching, 6 mM, inoculation 3 days after treatment) is reported as “Increases Tolerance”. In experiment [7], the diameter of decay result was “significantly smaller”. Moreover, the “tolerance to Pythium aphanidermatum (percentage of dead plants)” value in experiment [8] is reported as “increased tolerance”. Also, the “area of brown spots” value in [9] is “reduced the area of brown spots caused by Alternaria alternata by four folds”.

Source of the values: patent publication US11812746B2, “Method of controlling fungal infections in plants” (THE STATE OF ISRAEL, MINISTRY OF AGRICULTURE & RURAL …, priority 2016, dated 2023).
